Results on 3 compounds are retold here after US11358960B2, “Pyrazol-3-ones that activate pro-apoptotic BAX” (Dana-Farber Cancer Institute, Inc., priority 2011, dated 2022).

The subject of test [1] is BCL-XL-dependent leukemia cell line. In words: Caspase 3/7 and cell death in BCL-XL-dependent leukemia cell line. Format: cell-based.
In test [2] the test system is MCL-1 dependent leukemia cell line. Put plainly: Caspase 3/7 and cell death in isogenic MCL-1 dependent leukemia cell line. Format: cell-based.
The subject of test [3] is DHL5 diffuse large B-cell lymphoma (DLBCL) cells. Put plainly: DHL5 cell viability assay (CellTiter-Glo). Format: cell-based. Conditions: for cell viability: single agent, 24 hours. For orientation: Cellular ATP, detected with luciferase, serves as a proxy for viable cell number.
Test [4] concerns the target T1, recombinant full-length BAX (Homo sapiens, UniProt Q07812).
T1 construct: Recombinant and tagless full-length BAX; made in house; host or cells: Escherichia coli BL21 (DE3)
In words: Competitive fluorescence polarization assay: displacement of FITC-BIM SAHB from BAX. Format: binding. The conditions noted are these: positive control. As for the experimental part:
BCL-2 family protein production. Recombinant and tagless full-length BAX, BCL-XLΔC, MCL-1ΔNΔC, and BFL-1/A1ΔC were expressed and purified as previously reported^17,35. Transformed Escherichia coli BL21 (DE3) were cultured in ampicillin-containing Luria Broth and protein expression was induced with 0.5 mM isopropyl β-D-1-thiogalactopyranoside (IPTG). The bacterial pellets were resuspended in buffer (250 mM NaCl, 20 mM Tris, complete protease inhibitor tablet, pH 7.2), sonicated, and after centrifugation at 45,000×g for 45 min, the supernatants were applied to glutathione-agarose columns (Sigma) for GST-BCL-XLΔC, MCL-1ΔNΔC, and BFL-1/A1ΔC, or a chitin column (BioLabs) for Intein-BAX. On-bead digestion of GST-tagged protein was accomplished by overnight incubation at room temperature in the presence of thrombin (75 units) in PBS (3 mL), whereas the intein tag was cleaved from BAX by overnight incubation of the chitin beads at 4° C. with 50 mM DTT. BCL-XLΔC, MCL-1ΔNΔC, and BFL-1/A1ΔC were purified by size exclusion chromatography (SEC) using 150 mM NaCl, 50 mM Tris, pH 7.4 buffer conditions, and full-length monomeric BAX protein isolated by SEC using a Superdex-75 column (GE Healthcare) and 20 mM Hepes pH 7.2, 150 mM KCl buffer conditions.
(§1) Fluorescence polarization binding assays. Fluorescence polarization assays (FPA) were performed as previously described^35,36.

The target of a further test is T2, BCL-XL (Homo sapiens, UniProt Q07817).
T2 construct: serial dilutions of full-length BAX, BCL-XLΔC, MCL-1ΔNΔC, or BFL-1/A1ΔC; GST (N, cleaved yes); made in house; host or cells: Escherichia coli BL21 (DE3)
T2 sequence (Q07817 1-212 limits assumed, species assumed): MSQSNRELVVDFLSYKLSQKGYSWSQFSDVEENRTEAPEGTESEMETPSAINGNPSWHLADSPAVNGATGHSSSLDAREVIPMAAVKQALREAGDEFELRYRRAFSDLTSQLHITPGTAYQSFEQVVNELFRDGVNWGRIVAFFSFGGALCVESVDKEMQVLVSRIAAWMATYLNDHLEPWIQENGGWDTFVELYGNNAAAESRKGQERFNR
Put plainly: Competitive FPA with FITC-BIM SAHB and BCL-XL. It is filed as binding.
From the text: (§2) The BH3 binding pocket of anti-apoptotic targets shares topographic similarities with the BH3 trigger site on BAX, including a hydrophobic groove that engages the hydrophobic face of BH3 helices and a perimeter of similarly oriented charged and polar residues that are complementary to discrete residues of the hydrophilic BH3 interface. The two BH3 binding sites differ in their geographic location, pocket depth, and functionality.
(§3) BCL-2 family protein production. Recombinant and tagless full-length BAX, BCL-XLΔC, MCL-1ΔNΔC, and BFL-1/A1ΔC were expressed and purified as previously reported^17,35. Transformed Escherichia coli BL21 (DE3) were cultured in ampicillin-containing Luria Broth and protein expression was induced with 0.5 mM isopropyl β-D-1-thiogalactopyranoside (IPTG). The bacterial pellets were resuspended in buffer (250 mM NaCl, 20 mM Tris, complete protease inhibitor tablet, pH 7.2), sonicated, and after centrifugation at 45,000×g for 45 min, the supernatants were applied to glutathione-agarose columns (Sigma) for GST-BCL-XLΔC, MCL-1ΔNΔC, and BFL-1/A1ΔC, or a chitin column (BioLabs) for Intein-BAX. […]
as §1

The target in a further test is T3, MCL-1 (Homo sapiens, UniProt Q07820).
T3 construct: serial dilutions of full-length BAX, BCL-XLΔC, MCL-1ΔNΔC, or BFL-1/A1ΔC; GST (N, cleaved yes); made in house; host or cells: Escherichia coli BL21 (DE3)
T3 sequence (Q07820 170-327 limits assumed, species assumed): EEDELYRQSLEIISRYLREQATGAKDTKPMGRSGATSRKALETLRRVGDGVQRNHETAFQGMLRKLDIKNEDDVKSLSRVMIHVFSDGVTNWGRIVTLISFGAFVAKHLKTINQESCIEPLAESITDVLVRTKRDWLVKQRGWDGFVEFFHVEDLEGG
In words: Competitive FPA with FITC-BIM SAHB and MCL-1. Format: binding.
From the text: as §2, §3, §1

The next test addresses T4, BFL-1/A1 (Homo sapiens, UniProt Q16548).
T4 construct: serial dilutions of full-length BAX, BCL-XLΔC, MCL-1ΔNΔC, or BFL-1/A1ΔC; GST (N, cleaved yes); made in house; host or cells: Escherichia coli BL21 (DE3)
T4 sequence (Q16548 1-151 limits assumed): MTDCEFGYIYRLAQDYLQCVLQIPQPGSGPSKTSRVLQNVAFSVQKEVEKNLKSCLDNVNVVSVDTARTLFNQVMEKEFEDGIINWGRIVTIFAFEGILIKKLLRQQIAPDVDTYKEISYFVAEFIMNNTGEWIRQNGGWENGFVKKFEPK
Put plainly: Competitive FPA with FITC-BIM SAHB and BFL-1/A1. It is filed as binding.
From the text: as §2, §3, §1

The subject of the next test is Bax−/−Bak−/− MEFs. In words: Cell viability assay in Bax-/-Bak-/- MEFs (CellTiter-Glo). Format: cell-based, mouse. The conditions noted are these: 24 hours.
The subject of test [5] is Bak−/− MEFs. Put plainly: Light microscopy (live cell imaging) of Bak-/- MEFs. It is filed as cell-based, mouse. Conditions: BAM7 15 μM, time lapse. The protocol:
Light microscopy. MEFs (5,000 cells/well) were plated for 24 hours on glass bottom culture dishes (MatTek Corp., MA) and then incubated with BAM7 (15 μM) or vehicle (0.15% DMSO). Live cell imaging was performed using a TE2000-E2 Nikon microscopy equipped with a temperature and CO2-controlled chamber that maintained an atmosphere of 3-5% humidified CO2 at 37° C. A Hamamatsu Orca ER digital CCD camera was used to capture images at 20× magnification for 24 hours at 20 min intervals. Acquisition, hardware control, and image analysis was performed using Nikon NIS-Elements software.

Another test has as its system leukemia cells. In words: Leukemia cell viability (anti-leukemic activity). It is filed as cell-based. The conditions noted are these: FIGS. 15-17.
In test [6] the test system is Bak−/− MEFs. Put plainly: Cell viability assay in Bak-/- MEFs (CellTiter-Glo). It is filed as cell-based, mouse. The conditions noted are these: Bak−/− MEFs (express only BAX), 24 hours.

T1 sequence (Q07812 whole entry): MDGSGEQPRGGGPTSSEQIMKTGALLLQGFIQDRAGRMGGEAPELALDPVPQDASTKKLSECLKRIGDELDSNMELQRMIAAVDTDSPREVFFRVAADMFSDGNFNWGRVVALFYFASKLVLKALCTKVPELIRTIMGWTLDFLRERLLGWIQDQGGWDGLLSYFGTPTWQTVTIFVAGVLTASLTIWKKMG

Regarding `CN(C)CC[C@H](CSc1ccccc1)Nc1ccc(S(=O)(=O)NC(=O)c2ccc(N3CCN(Cc4ccccc4-c4ccc(Cl)cc4)CC3)cc2)cc1[N+](=O)[O-]` [ABT-737, reference compound], the cell death entry was “induces cell death” in test [1] and “significant resistance” in test [2]. In addition, the cell viability entry in test [3] was “relatively resistant”. The “effect of added ABT-737 on the response to BAM7” value in test [3] (subcytotoxic dose of ABT-737 added to BAM7) is “further sensitized the cells to BAM7”.
For `CC[C@H](C)[C@H](NC(C)=O)C(=O)N[C@@H](Cc1c[nH]c2ccccc12)C(=O)N[C@H](C(=O)N[C@@H](C)C(=O)N[C@@H](CCC(N)=O)C(=O)N[C@@H](CCC(=O)O)C(=O)N[C@@H](CC(C)C)C(=O)N[C@@H](CCCNC(=N)N)C(=O)N[C@@]1(C)CCCC=CCCC[C@@](C)(C(=O)N[C@@H](Cc2ccccc2)C(=O)N[C@@H](CC(N)=O)C(=O)N[C@@H](C)C(=O)N[C@@H](Cc2ccc(O)cc2)C(=O)N[C@@H](Cc2ccc(O)cc2)C(=O)N[C@@H](C)C(=O)N[C@@H](CCCNC(=N)N)C(=O)N[C@@H](CCCNC(=N)N)C(N)=O)NC(=O)[C@H](CC(=O)O)NC(=O)CNC(=O)[C@H]([C@@H](C)CC)NC1=O)[C@@H](C)CC` [Ac-BIM SAHB, reference compound], the IC50 in test [4] is 314 nM; at BCL-XL (competitive FPA, read-out: IC50, competition with FITC-BIM SAHB for binding to BCL-XL) it was 572 nM; at MCL-1 (competitive FPA, read-out: IC50, competition with FITC-BIM SAHB for binding to MCL-1), 136 nM; at BFL-1/A1 (competitive FPA, read-out: IC50, competition with FITC-BIM SAHB for binding to BFL-1/A1) it was 603 nM.
As to `CCOc1ccccc1NN=C1C(=O)N(c2nc(-c3ccccc3)cs2)N=C1C` [BAM7, 4-(2-(2-ethoxyphenyl)hydrazono)-3-methyl-1-(4-phenylthiazol-2-yl)-1H-pyrazol-5(4H)-one], the cell viability entry is on record as “did not affect the viability” with Bax−/−Bak−/− MEFs, “dose-responsive impairment of cell viability” in test [3] and “dose-responsively impaired the viability” in the test with Bak−/− MEFs [6]. Further, in the test with Bak−/− MEFs [5], the “morphologic features of apoptosis” value was “characteristic microscopic features of apoptosis”. Also, the “effect of BAM7 on the response to ABT-737” value in [3] (BAM7 10 μM plus ABT-737) was “sensitized DHL5 cells to ABT-737”. Besides, on BCL-XL (up to 50 μM dosing), the “competition with FITC-BIM SAHB for BCL-XL (in words)” value is reported as “little to no anti-apoptotic binding interactions”. In addition, the “competition with FITC-BIM SAHB for MCL-1 (in words)” value on MCL-1 (up to 50 μM dosing) is “little to no anti-apoptotic binding interactions”. In addition, the anti-leukemic activity result with leukemia cells is given as “anti-leukemic activity”. The “competition with FITC-BIM SAHB for BFL-1/A1 (in words)” value at BFL-1/A1 (up to 50 μM dosing) was “little to no anti-apoptotic binding interactions”.
